Assay results published in patent US20240409572A1, “COMPOUND FOR TREATING NEURODEGENERATIVE DISEASES AND ITS ISOLATION METHOD THEREOF” (SARAWAK BIODIVERSITY COUNCIL, priority 2020, published 2024).

Target: T1, recombinant human POP (Homo sapiens, UniProt P48147)
T1 construct: purchased USBiological, MA
T1 sequence (P48147 1-710): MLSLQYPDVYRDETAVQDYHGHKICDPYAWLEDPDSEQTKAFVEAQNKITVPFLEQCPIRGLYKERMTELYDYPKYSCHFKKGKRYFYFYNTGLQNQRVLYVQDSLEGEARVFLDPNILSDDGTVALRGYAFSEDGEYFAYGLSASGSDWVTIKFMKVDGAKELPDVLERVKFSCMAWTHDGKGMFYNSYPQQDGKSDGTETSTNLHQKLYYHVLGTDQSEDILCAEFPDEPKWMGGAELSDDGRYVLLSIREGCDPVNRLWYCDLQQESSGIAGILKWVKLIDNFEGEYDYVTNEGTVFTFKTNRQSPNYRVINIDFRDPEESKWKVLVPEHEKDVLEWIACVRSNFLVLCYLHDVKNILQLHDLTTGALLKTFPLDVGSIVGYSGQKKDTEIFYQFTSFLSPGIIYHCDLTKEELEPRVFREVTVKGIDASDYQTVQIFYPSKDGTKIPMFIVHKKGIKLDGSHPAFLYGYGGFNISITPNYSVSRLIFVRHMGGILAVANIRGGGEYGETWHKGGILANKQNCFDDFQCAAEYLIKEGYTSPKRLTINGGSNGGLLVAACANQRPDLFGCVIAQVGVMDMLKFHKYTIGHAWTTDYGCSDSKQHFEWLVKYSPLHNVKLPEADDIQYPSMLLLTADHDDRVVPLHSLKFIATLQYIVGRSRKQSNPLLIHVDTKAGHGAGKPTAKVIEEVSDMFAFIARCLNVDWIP
Assay: POP enzyme inhibition colorimetric assay (recombinant human POP)
Assay type: biochemical
Conditions: 0.04 mg/ml; read-out: inhibition against human POP
Description: FIG. 3 illustrates the inhibition activity of FGS03 against Flavobacterium and recombinant human POP. FGS03 is tested at final concentrations of 0.02 mg/ml and 0.04 mg/ml respectively. Positive control is PE Inhibitor II, Calbiochem, USA. Each sample is tested in triplicate. Data represented as mean value with standard deviation, n=3.
The POP inhibitory activity of compound was evaluated using an enzyme inhibition assay. A colorimetric assay was set up using Flavobacterium and recombinant human POP enzymes. The POP enzyme solutions obtained from Flavobacterium (0.5 U mL^−1 giving 0.0416 units per well) and human (USBiological, MA with working concentration 0.006 mg/ml) were added to the 96-well plates containing sample extracts and phosphate buffer (100 mM, pH 7.0). The reaction was initiated with the addition of enzyme substrate, Z-Gly-Pro-4-nitroanilide (2 mM in 40% dioxane) and incubated at 30° C. for 15 minutes. Stopper buffer (2 M acetate buffer, pH 4.0 with 10% Triton-X) was added to stop the enzyme reaction. The released p-nitroanilide was determined colorimetrically with a plate reader at 414 nm. The inhibition activity was calculated using the formula:
[formula] • where blank=control without the inhibitor • OD=change in optical density during the assay.

Work on `CCCCCCCCCCCc1cc(O)cc(O[C@H]2O[C@@H](C(=O)O)[C@@H](O)[C@H](O)[C@H]2O)c1C(=O)O` [FGS03, (2R,3S,4S,5R,6R)-6-(2-carboxy-5-hydroxy-3-undecylphenoxy)-3,4,5-trihydroxytetrahydro-2H-pyran-2-carboxylic acid] yielded an inhibition at 40 µg/mL of 80%.
